Laboratory results published in patent publication US7671181B2, “Polynucleotides encoding coccidian parasite casein kinase I, a chemotherapeutic target for antiprotozoal agents” (Merck Sharp & Dohme Corp., priority 2004, dated 2010).

How the values were obtained:
[1] = biological target: TgCKIα (Toxoplasma gondii, UniProt Q6QNM1); assay: Casein kinase assay, TgCKIα (recombinant FLAGTgCKIα or partially purified native); assay type: biochemical; parameters: Km(app), native TgCKIα; other: substrate titration, 2 μM ATP; IC50, nativeTgCKIα; other: partially purified native enzyme from Toxoplasma tachyzoites; sensitivity of native TgCKIα phosphopeptide kinase activity (HiTrapQ fractions 5-9); other: 0.2 μM hymenialdisine or 1; conditions: 0.2 μM hymenialdisine or 1 μM purvalanol B
TgCKIα, sequence (Q6QNM1 whole entry, looked up): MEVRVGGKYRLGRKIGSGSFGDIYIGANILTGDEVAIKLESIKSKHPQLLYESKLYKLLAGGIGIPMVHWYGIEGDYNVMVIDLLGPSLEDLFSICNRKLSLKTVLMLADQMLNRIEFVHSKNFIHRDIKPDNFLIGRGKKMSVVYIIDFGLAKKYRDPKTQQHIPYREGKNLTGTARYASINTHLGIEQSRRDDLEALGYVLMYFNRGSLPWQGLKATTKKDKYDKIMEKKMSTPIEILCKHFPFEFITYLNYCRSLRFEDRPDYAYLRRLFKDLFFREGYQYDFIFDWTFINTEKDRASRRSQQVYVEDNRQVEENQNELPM
Protocol: Protein kinase assays—Casein kinase activity was assayed essentially as described (Donald, R. G. K. et al., 2002, supra) using 96-well phosphocellulose plates (MAPH-NOB, Millipore; Billerica, Mass.) to capture ^33P-phosphorylated peptide or casein substrates. Kinase reactions were carried out in 40 μl volumes containing 25 mM Hepes, pH 7.4, 10 mM MgCl2, 20 mM β-glycerophosphate, 1 mM DTT, 250 μM substrate, 1 mg/mL BSA, 2 μM ATP, and 0.01 μM [γ-^33P]ATP (Perkin-Elmer, 3000 Ci/mmol). […] Casein (5% solution), partially dephosphorylated α-casein and β-casein were obtained from Sigma.
A variety of commercially available peptide substrates were evaluated. From Calbiochem (San Diego, Calif.): CKI substrate (RRKDLHDDEEDEAMSITA; SEQ ID NO:13); CKII substrate (RRADDSDDDDD; SEQ ID NO:14); Syntide-2 substrate (PLARTLSVAGLPGKK; SEQ ID NO:15); CaM kinase II substrate (281-291) (MHKNETVECLK; SEQ ID NO:16). From Promega: CKI substrate (DDDEESITRR; SEQ ID NO:17) and kemptide (LRRASLG; SEQ ID NO:18). From New England Biolabs (Beverly, Mass.): CKI phosphopeptide substrate (KRRRALS(p)VASLPGL; SEQ ID NO:19), and CKII substrate (RRREEETEEE; SEQ ID NO:20). PKG assays were performed with kemptide as substrate and 10 μM cGMP. CDPK was assayed with Syntide-2 substrate and in the presence of 100 μM CaCl2.
Purification of recombinant CKI enzymes—E. coli strain BL21 Origami™ (Novagen) was transformed with FLAGTgCKIα and FLAGTgCKIβ expression vectors, and colonies were expanded into 250 mL LB cultures grown at 37° C. Expression was induced with 1 mM IPTG once cultures had reached an OD600nm of 0.3-0.5, and the transformed bacteria were harvested 4-6 hours later. Cell pellets were resuspended in 15 mL of lysis buffer containing protease inhibitors and lysates prepared as described by the supplier (Bugbuster™ reagents, Novagen). The concentration of NaCl in the lysate was adjusted to 0.5 M, and 0.5 mL of FLAG-agarose beads were added (Sigma). The mixture was allowed to rock in a Nutator mixer (Becton-Dickinson; San Jose, Calif.) for 2 hours at 4° C. The slurry was then poured into an empty column and the matrix washed with 50 mL of wash buffer (50 mM Tris-HCl, pH 7.4, 0.5M NaCl, 10% glycerol, 1 mM DTT, 1 mM EDTA). […] Protein was measured with a micro-BCA reagent (Pierce) following a TCA-sodium deoxycholate step to remove residual FLAG peptide (Brown et al., 1989, Anal. Biochem. 180:136-139). […]
Preparations of FLAGTgCKIα and FLAGTgCKIβ were purified further on a SMART system FPLC 0.1 mL MonoQ anion exchange column (Pharmacia; New York, N.Y.) equilibrated in buffer A (50 mM Hepes, pH 7.4, 10% glycerol, 1 mM DTT) at room temperature. […] A linear salt gradient was applied (0-500 mM in 3 mL at 100 μl/min) and 100 μl fractions were collected and analyzed by SDS-PAGE and for CKI activity. […]

[2] = tested on: T. gondii tachyzoites; assay: [3H]-uracil uptake assay of parasite growth inhibition in infected HFF cell monolayers; assay type: cell-based, Toxoplasma gondii; conditions: infected HFF cell monolayers, 36-48 hours; read-out: IC50 against T. gondii in the uracil uptake assay
Excerpt: Host cells and parasite cultures—RH strain or RH ΔHXGPRT strain tachyzoites of T. gondii were maintained by serial passage in confluent monolayers of human foreskin fibroblasts (“HFF”) as described (Roos, D. S. et al., 1994, Methods Cell Biol. 45:27-63). A modified [^3H]-uracil uptake assay (Pfefferkorn, E. R. and Pfefferkorn, L. C., 1977, J. Protozool. 24:449-453) adapted for use in 96-well scintillation plates (Cytostar-T, Amersham; Piscataway, N.J.) was used to measure parasite growth inhibition. Each well, previously seeded with HFF cells, was inoculated with T. gondii tachyzoites (2×10^4) in 200 μl of growth media containing 2 μCi [5,6]-^3H-uracil (Perkin-Elmer NEN; Boston, Mass.) and serially diluted compound. Following incubation at 37° C. for 36-48 hours, tritium-incorporation into host cell monolayers was directly counted in a microplate scintillation counter (MicroBeta, PerkinElmer-Wallac).

With `CC(C)[C@H](CO)Nc1nc(Nc2ccc(C(=O)O)c(Cl)c2)c2ncn(C(C)C)c2n1` [purvalanol B] as the compound, how does the “sensitivity of native TgCKIα phosphopeptide kinase activity (HiTrapQ fractions 5-9)” value [1] read?
Its value is “sensitive”.

What about the IC50 [2] of the same compound?
The IC50 was 260 nM.
